What all share (type): biochemical
Assay [1] has as its target Pim-1 (Homo sapiens (Human), UniProt P11309). The assay can be described thus: Pim-1 kinase assay. To be noted: 1 mM ATP; read-out: PIM1 IC50. How it is done:
(§1) Pim-1 and Pim-3 kinase assays—20 μL reactions were run in white 384 well polystyrene plates dotted with 0.8 μL compound/DMSO in the assay buffer (50 mM Tris, pH 7.5, 0.01% Tween-20, 5 mM mgCl2, 0.01% BSA, 5 mM DTT), containing 0.05 μM Biotin-labeled BAD peptide substrate (AnaSpec 62269), 1 mM ATP, and 2.5 pM (Pim-1, Invitrogen PV3503) or 1.25 pM (Pim-3, Millipore 14-738) enzyme for 1 h at 25° C. Reactions were stopped by addition of 10 μL STOP Buffer (150 mM Tris, pH=7.5, 150 mM NaCl, 75 mM EDTA, 0.01% Tween-20, 0.3% BSA,) supplemented with Phospho-Bad (Ser112) Antibody (Cell Signaling 9291) diluted 666-fold, and Streptavidin donor beads (PerkinElmer 6760002) along with Protein-A acceptor beads (PerkinElmer 6760137) at […]. Supplementation of the STOP buffer with beads and stopping the reactions were done under reduced light. Prior to the stopping reactions STOP buffer with beads was preincubated for 1 h in the dark at room temperature. After stopping the reactions, plates were incubated for 1 h in the dark at room temperature before reading on a PHERAstar FS plate reader (BMG Labtech) under reduced light.

Assay [2] addresses Pim-2 (Homo sapiens (Human), UniProt Q9P1W9). The assay is described as follows: Pim-2 kinase assay. The note with it: 1 mM ATP; read-out: PIM2 IC50. How it is done: Pim-2 kinase assay—20 μL reactions were run in white 384 well polystyrene plates dotted with 0.8 μL compound/DMSO in the assay buffer (50 mM Tris, pH 7.5, 0.01% Tween-20, 5 mM mgCl2, 0.01% BSA, 5 mM DTT), containing 0.05 μM Fluorescein-labeled CREBtide peptide substrate (Invitrogen PV3508), 1 mM ATP, and 1 nM enzyme (Invitrogen PV3649) for 2 h at 25° C. Reactions were stopped by addition of 10 μL TR-FRET Dilution Buffer (Invitrogen PV3574) with 30 mM EDTA and 1.5 nM LanthaScreen Tb-CREB pSer133 antibody (Invitrogen PV3566). After 30 min. incubation at room temperature, plates were read on a PHERAstar FS plate reader (BMG Labtech).

The target of assay [3] is Pim-3 (Homo sapiens (Human), UniProt Q86V86). The assay can be described thus: Pim-3 kinase assay. To be noted: 1 mM ATP; read-out: PIM3 IC50. How it is done: as §1

Where only a bound is given, the exact number is not on record here.

For orientation: IC50 means the midpoint of a concentration-inhibition curve.

Chain of Pim-2 (Q9P1W9 whole entry): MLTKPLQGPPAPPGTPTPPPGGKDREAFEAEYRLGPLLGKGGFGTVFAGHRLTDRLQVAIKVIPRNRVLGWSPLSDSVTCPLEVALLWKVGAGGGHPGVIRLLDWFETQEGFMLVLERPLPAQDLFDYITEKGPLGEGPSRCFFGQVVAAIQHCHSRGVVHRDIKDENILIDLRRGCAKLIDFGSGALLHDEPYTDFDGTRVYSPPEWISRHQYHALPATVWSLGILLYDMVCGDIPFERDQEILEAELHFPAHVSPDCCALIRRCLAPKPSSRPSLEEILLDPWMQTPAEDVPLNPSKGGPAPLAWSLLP
Chain of Pim-1 (P11309 whole entry): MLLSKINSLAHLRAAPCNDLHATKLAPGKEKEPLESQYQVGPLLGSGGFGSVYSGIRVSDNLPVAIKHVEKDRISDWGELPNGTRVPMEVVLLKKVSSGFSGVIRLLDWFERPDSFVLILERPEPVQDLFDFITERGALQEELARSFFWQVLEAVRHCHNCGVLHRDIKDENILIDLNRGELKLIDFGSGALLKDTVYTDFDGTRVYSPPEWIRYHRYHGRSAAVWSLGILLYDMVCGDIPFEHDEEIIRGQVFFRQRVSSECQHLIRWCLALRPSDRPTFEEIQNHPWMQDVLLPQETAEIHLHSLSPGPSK

`COc1ccccc1N(C)c1cnc2c(C(=O)Nc3cnccc3[C@@H]3C[C@H](C)C[C@H](N)C3)ccc(F)c2c1` [Example 152, N-(4-((1R,3S,5S)-3-Amino-5-methylcyclohexyl)pyridin-3-yl)-5-fluoro-3-((2-methoxyphenyl)(methyl)amino)quinoline-8-carboxamide]: the IC50 was at most 10 nM in assay [1], at most 100 nM in assay [2] and at most 10 nM in assay [3].
As for `C[C@@H]1C[C@H](N)C[C@H](c2ccncc2NC(=O)c2ccc(F)c3cc(N4CC[C@H](C#N)C4)cnc23)C1` [Example 7, N-{4-[(1R,3S,5S)-3-Amino-5-methylcyclohexyl]pyridin-3-yl}-3-[(3S)-3-cyanopyrrolidin-1-yl]-5-fluoroquinoline-8-carboxamide], the IC50 in assay [1] is at most 10 nM; in assay [2], at most 100 nM; in assay [3], at most 10 nM.
Consider `C[C@@H]1C[C@H](N)C[C@H](c2ccncc2NC(=O)c2cccc3cc(N4CCCCC4C(F)F)cnc23)C1` (stereo partly drawn) [Example 71, N-(4-((1R,3S,5S)-3-Amino-5-methylcyclohexyl)pyridin-3-yl)-3-(2-(difluoromethyl)piperidin-1-yl)quinoline-8-carboxamide], for which the IC50 in assay [1] is at most 10 nM; in assay [2] it was 100 to 1000 nM; in assay [3], at most 10 nM.
In the case of `C[C@@H]1C[C@H](N)C[C@H](c2ccncc2NC(=O)c2ccc(F)c3cc(N4CCC[C@@H](F)C4)cnc23)C1` [Example 2, N-{4-[(1R,3S,5S)-3-Amino-5-methylcyclohexyl]pyridin-3-yl}-5-fluoro-3-[(3,R)-3-fluoropiperidin-1-yl]quinoline-8-carboxamide], the IC50 was at most 10 nM in assay [1], at most 100 nM in assay [2] and at most 10 nM in assay [3].
As for `C[C@@H]1C[C@H](N)C[C@H](c2ccncc2NC(=O)c2ccc(F)c3cc(N4CCCc5ccccc54)cnc23)C1` [Example 130, N-(4-((1R,3S,5S)-3-Amino-5-methylcyclohexyl)pyridin-3-yl)-5′-fluoro-3,4-dihydro-2H-1,3′-biquinoline-8′-carboxamide], the IC50 in assay [1] is at most 10 nM; in assay [2], 100 to 1000 nM; in assay [3], at most 10 nM.
Take `C[C@@H]1C[C@H](N)C[C@H](c2ccncc2NC(=O)c2ccc(F)c3cc(N4CC[C@H]4C)cnc23)C1` [Example 167, N-(4-((1R,3S,5S)-3-Amino-5-methylcyclohexyl)pyridin-3-yl)-5-fluoro-3-((R)-2-methylazetidin-1-yl)quinoline-8-carboxamide]: the IC50 in assay [1] is at most 10 nM; in assay [2], at most 100 nM; in assay [3], at most 10 nM.
For `CCCN(C)c1cnc2c(C(=O)Nc3cnccc3[C@@H]3C[C@H](C)C[C@H](N)C3)ccc(F)c2c1` [Example 55, N-(4-((1R,3S,5S)-3-Amino-5-methylcyclohexyl)pyridin-3-yl)-5-fluoro-3-(methyl(propyl)amino)quinoline-8-carboxamide], the 50% inhibitory concentration (IC50) was at most 10 nM in assay [1], at most 100 nM in assay [2] and at most 10 nM in assay [3].
Consider `C[C@@H]1C[C@H](N)C[C@H](c2ccncc2NC(=O)c2ccc(F)c3cc(N(C)CC(F)(F)F)cnc23)C1` [Example 21, N-{4-[(1R,3S,5S)-3-Amino-5-methylcyclohexyl]pyridin-3-yl}-5-fluoro-3-[methyl(2,2,2-trifluoroethyl)amino]quinoline-8-carboxamide], for which the figures for the IC50 in assay [1], in assay [2] and in assay [3] were at most 10 nM, at most 100 nM and at most 10 nM, respectively.
On to `C[C@@H]1C[C@H](N)C[C@H](c2ccncc2NC(=O)c2ccc(F)c3cc(N(C)c4ccncc4F)cnc23)C1` [Example 145, N-(4-((1R,3S,5S)-3-Amino-5-methylcyclohexyl)pyridin-3-yl)-5-fluoro-3-((3-fluoropyridin-4-yl)(methyl)amino)quinoline-8-carboxamide], for which the IC50 in assay [1] was at most 10 nM; in assay [2], at most 100 nM; in assay [3], at most 10 nM.
Consider `COC(=O)N1CCCN(c2cnc3c(C(=O)Nc4cnccc4[C@@H]4C[C@H](C)C[C@H](N)C4)ccc(F)c3c2)CC1` [Example 126, Methyl 4-(8-(4-((1R,3S,5S)-3-amino-5-methylcyclohexyl)pyridin-3-ylcarbamoyl)-5-fluoroquinolin-3-yl)-1,4-diazepane-1-carboxylate], for which the IC50 was at most 10 nM in assay [1], at most 100 nM in assay [2] and at most 10 nM in assay [3].
As to `CC(C)CN1CCN(c2cnc3c(C(=O)Nc4cnccc4[C@@H]4C[C@H](C)C[C@H](N)C4)ccc(F)c3c2)CC1=O` [Example 117, N-(4-((1R,3S,5S)-3-Amino-5-methylcyclohexyl)pyridin-3-yl)-5-fluoro-3-(4-isobutyl-3-oxopiperazin-1-yl)quinoline-8-carboxamide], the values for the IC50 in assay [1], in assay [2] and in assay [3] were at most 10 nM, at most 100 nM and at most 10 nM, respectively.
Regarding `C[C@@H]1C[C@H](N)C[C@H](c2ccncc2NC(=O)c2ccc(F)c3cc(NCC(F)F)cnc23)C1` [Example 27, N-{4-[(1R,3S,5S)-3-Amino-5-methylcyclohexyl]pyridin-3-yl}-3-[(2,2-difluoroethyl)amino]-5-fluoroquinoline-8-carboxamide], the IC50 in assay [1] is at most 10 nM; in assay [2], at most 100 nM; in assay [3] it was at most 10 nM.
In the case of `CO[C@@H]1CCN(c2cnc3c(C(=O)Nc4cnccc4[C@@H]4C[C@H](C)C[C@H](N)C4)ccc(F)c3c2)C[C@H]1F` [Example 162, N-(4-((1R,3S,5S)-3-Amino-5-methylcyclohexyl)pyridin-3-yl)-5-fluoro-3-((3R,4R)-3-fluoro-4-methoxypiperidin-1-yl)quinoline-8-carboxamide], the IC50 in assay [1] is at most 10 nM; in assay [2], at most 100 nM; in assay [3], at most 10 nM.
Consider `C[C@@H]1C[C@H](N)C[C@H](c2ccncc2NC(=O)c2ccc(F)c3cc(N4CC5COCC5C4)cnc23)C1` (stereo partly drawn) [Example 110, N-(4-((1R,3S,5S)-3-Amino-5-methylcyclohexyl)pyridin-3-yl)-3-(dihydro-1H-furo[3,4-c]pyrrol-5(3H,6H,6aH)-yl)-5-fluoroquinoline-8-carboxamide], for which the figures for the IC50 in assay [1], in assay [2] and in assay [3] were at most 10 nM, at most 100 nM and at most 10 nM, respectively.
On to `COc1ccncc1N(C)c1cnc2c(C(=O)Nc3cnccc3[C@@H]3C[C@H](C)C[C@H](N)C3)ccc(F)c2c1` [Example 150, N-(4-((1R,3S,5S)-3-Amino-5-methylcyclohexyl)pyridin-3-yl)-5-fluoro-3-((4-methoxypyridin-3-yl)(methyl)amino)quinoline-8-carboxamide], for which the IC50 in assay [1] was at most 10 nM; in assay [2] it was at most 100 nM; in assay [3] it was at most 10 nM.
As to `C[C@@H]1C[C@H](N)C[C@H](c2ccncc2NC(=O)c2ccc(F)c3cc(N4CCCC4)cnc23)C1` [Example 3, N-{4-[(1R,3S,5S)-3-Amino-5-methylcyclohexyl]pyridin-3-yl}-5-fluoro-3-pyrrolidin-1-ylquinoline-8-carboxamide], the results for the IC50 in assay [1], in assay [2] and in assay [3] were at most 10 nM, 100 to 1000 nM and 10 to 50 nM, respectively.
Taken in the same sequence, the figures for `CO[C@H]1CCN(c2cnc3c(C(=O)Nc4cnccc4[C@@H]4C[C@H](C)C[C@H](N)C4)ccc(F)c3c2)C1` [Example 50, N-(4-((1R,3S,5S)-3-Amino-5-methylcyclohexyl)pyridin-3-yl)-5-fluoro-3-((S)-3-methoxypyrrolidin-1-yl)quinoline-8-carboxamide] were at most 10 nM, at most 100 nM and at most 10 nM.
With `C[C@@H]1C[C@H](N)C[C@H](c2ccncc2NC(=O)c2ccc(F)c3cc(N(C)c4ccccc4F)cnc23)C1` [Example 97, N-(4-((1R,3S,5S)-3-Amino-5-methylcyclohexyl)pyridin-3-yl)-5-fluoro-3-((2-fluorophenyl)(methyl)amino)quinoline-8-carboxamide], the results for the IC50 in assay [1], in assay [2] and in assay [3] were at most 10 nM, at most 100 nM and at most 10 nM, respectively.
Consider `C[C@@H]1C[C@H](N)C[C@H](c2ccncc2NC(=O)c2ccc(F)c3cc(-c4c(F)cc(O)cc4F)cnc23)C1` [Example 18, N-{4-[(1R,3S,5S)-3-Amino-5-methylcyclohexyl]pyridin-3-yl}-3-(2,6-difluoro-4-hydroxyphenyl)-5-fluoroquinoline-8-carboxamide], for which the IC50 in assay [1] is at most 10 nM; in assay [2], at most 100 nM; in assay [3] it was at most 10 nM.

For the origin of these results see patent publication US9920032B2, “Heterocyclic compounds useful as pim kinase inhibitors” (Incyte Corporation, priority 2015, dated 2018).
